# Experimental data from patent US20210260009A1, “METHODS AND COMPOSITIONS FOR THE TREATMENT OF A RENAL DISEASE” (priority 2020, published 2021).
# Assays:
# [1] = biological target: T1, E. coli apo-tryptophanase (TnaA) (Escherichia coli, UniProt P0A853); assay: In vitro tryptophanase assay (indole production by purified TnaA, Kovac's reagent); assay type: biochemical
# T1 construct: purchased Sigma-Aldrich
# Protocol: E. coli apo-tryptophanase (Sigma-Aldrich) was resuspended in 1 ml 100 mM potassium phosphate pH 8 buffer, aliquoted and kept at −20° C. 5 μl of apo-tryptophanase were added to 120 μl of 100 mM potassium phosphate pH 8 buffer with 1 mM pyrodxal-5-phosphate (PLP) and various treatments (NaCl, NaHS, L-cysteine, DTT or Na2S4) and incubated for 45 min at 37° C. Then 125 μl of 100 mM potassium phosphate with 5 mM L-tryptophan were added and the samples were incubated for 1 h at 37° C. Then 250 μl of 20% TCA were added to the samples, followed by a 15 min incubation on ice to precipitate TnaA. […] For the WT and ΔdecR TnaA activity assay, TnaA was purified from 10 ml bacterial cultures grown for 3 h in LB and then supplemented with 5 mM L-cysteine for 1 h, using the His-Spin protein miniprep kit (Zymo research). The purified protein was diluted 1:10 in 250 μl of 100 mM potassium phosphate pH 8 buffer with 1 mM PLP and 5 mM L-tryptophan and incubated for 1 h at 37° C., further processing was performed as mentioned above. TnaA activity was normalized to purified protein concentration, measured using BCA assay kit (Thermo Fisher).
# E. coli TnaA = biological target: T2, E. coli TnaA (Escherichia coli, UniProt P0A853); assay: TnaA S-sulfhydration by pull-down and Western blot (E. coli lysates, purified TnaA); assay type: biochemical
# T2 construct: made in house; host or cells: E. coli K-12 carrying the chromosomal tnaA-his allele under its native promoter (W3110 for purification)
# Protocol: TnaA purity was determined by Coomassie blue staining.
# WT E. coli cultures = assay: Indole in E. coli culture supernatants (Kovac's reagent and LC-MS/MS); assay type: cell-based; conditions: LB broth supplemented
# Protocol: (§1) E. coli K-12 BW25113 strain were used in all the experiments (H2S production, indole production and in vivo experiments). For technical reasons, E. coli K-12 MG1655 was used in the cloning process to generate ΔdecR and tnaA-his, and E. coli K-12 W3110 was used for expressing and purifying TnaA-His. Bacteria were grown in LB broth (Merck) at 37° C. with shaking (250 rpm) aerobically or without shaking anaerobically and where mentioned, LB was supplemented with L-cysteine (Sigma-Aldrich), sodium hydrosulfide (Sigma-Aldrich) and/or L-tryptophan (Sigma-Aldrich). For selection on LB+Chloramphenicol (Cm) agar plates, a concentration of 10 μg/ml Cm was used. The E. coli tnaA739::kan strain was obtained from Yale University Coli Genetic Stock Center (CGSC) as part of the Keio collection (Baba et al., 2006). […]
# The TMT fractions were analyzed by LC-MS3 on an Orbitrap Fusion™ Lumos™ Tribrid™ mass spectrometer. Labelled peptide samples were analyzed with an LC-MS3 data collection strategy (McAlister G C et al (2014) Anal. Chem. 86:7150-8) on an Orbitrap Fusion mass spectrometer (Thermo Fisher Scientific) equipped with a Thermo Easy-nLC 1200 for online sample handling and peptide separations. […] E. coli TnaA-His samples were analyzed at the Mass Spectrometry and Proteomics Resource Laboratory. […]
# E. coli lysates = assay: Pull-down of S-sulfhydrated proteins from E. coli lysates (Coomassie / silver stain)
# E. coli = E. coli sulfide (H2S) production from L-cysteine in culture (lead acetate, methylene blue) and growth; assay type: cell-based; conditions: LB supplemented with cysteine, aerobic or anaerobic
# Protocol: as §1, with “used.” for “used. The E. coli tnaA739::kan strain was obtained from Yale University Coli Genetic Stock Center (CGSC) as part of the Keio collection (Baba et al., 2006).”
# Lead acetate paper was prepared by incubating pre-cut Whatman paper in 20 mM lead acetate solution for 20 min at room temperature and then was dried for 20 min at 110° C. and kept in the dark (Hine and Mitchell, 2017). […] 200 μl were plated in 96-well plates in duplicate and analyzed by lead acetate sulfide assay as described above. […] The samples were vortexed briefly and incubated for 20 min at 37° C., thereafter they were centrifuged for 4 min at max speed and the supernatants were transferred to a 96-well plate to determine absorbance at OD670 nm. […] Then 300 μl of DPD/FeCl3 were added and the samples were incubated at 37° C. for 20 min, centrifuged for 4 min at max speed and absorbance was measured in OD670 nm. […]
# [2] = treated E. coli lysates, Western blot
# T2 sequence (P0A853 other isoform, or with tags, fused parts or gaps): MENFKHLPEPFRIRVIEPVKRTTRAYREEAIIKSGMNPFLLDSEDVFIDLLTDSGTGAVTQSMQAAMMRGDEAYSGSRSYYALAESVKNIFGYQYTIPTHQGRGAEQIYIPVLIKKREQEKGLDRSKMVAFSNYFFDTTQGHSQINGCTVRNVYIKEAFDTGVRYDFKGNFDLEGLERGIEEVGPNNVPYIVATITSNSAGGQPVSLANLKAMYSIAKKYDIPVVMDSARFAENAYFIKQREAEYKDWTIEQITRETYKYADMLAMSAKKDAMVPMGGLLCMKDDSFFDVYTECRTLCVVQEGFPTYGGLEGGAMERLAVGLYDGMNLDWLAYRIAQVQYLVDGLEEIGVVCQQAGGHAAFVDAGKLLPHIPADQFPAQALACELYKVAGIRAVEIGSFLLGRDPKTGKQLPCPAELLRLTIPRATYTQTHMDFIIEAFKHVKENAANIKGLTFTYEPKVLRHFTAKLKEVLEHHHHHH
# T1 sequence (P0A853 whole entry): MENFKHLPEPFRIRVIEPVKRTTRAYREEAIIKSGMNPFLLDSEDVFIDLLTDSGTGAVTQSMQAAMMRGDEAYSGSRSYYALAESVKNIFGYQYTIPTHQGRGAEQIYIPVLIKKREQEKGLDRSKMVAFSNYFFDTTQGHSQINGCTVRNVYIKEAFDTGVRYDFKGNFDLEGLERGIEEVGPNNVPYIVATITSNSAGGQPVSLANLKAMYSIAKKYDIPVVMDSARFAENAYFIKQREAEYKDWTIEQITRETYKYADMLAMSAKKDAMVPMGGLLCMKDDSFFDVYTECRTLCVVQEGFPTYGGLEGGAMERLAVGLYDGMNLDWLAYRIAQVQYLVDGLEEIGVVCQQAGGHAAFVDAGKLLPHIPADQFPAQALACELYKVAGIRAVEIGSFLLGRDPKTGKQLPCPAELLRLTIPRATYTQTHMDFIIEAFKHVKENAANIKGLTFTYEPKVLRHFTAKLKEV
smiles,measurement,setting,value
"O[C@H](CS)[C@H](O)CS (racemic) [DTT, dithiothreitol]",increase of TnaA activity,[1]; assay control,318%
"[Na+].[Na+].[S-]SS[S-] [Na2S4, disodium tetrasulfide]",reduction of TnaA enzymatic activity,[1],60%
same,TnaA S-sulfhydration,"E. coli TnaA; purified E. coli TnaA, incubation",led to TnaA S-sulfhydration
"S [NaHS, sodium hydrosulfide]",indole concentrations in the supernatants,WT E. coli cultures,reduced indole concentrations
same,S-sulfhydration of proteins,E. coli lysates; treatment of bacterial lysates,induced higher S-sulfhydration levels
same,TnaA S-sulfhydration,E. coli TnaA; [2],increased
"N[C@@H](CS)C(=O)O [cysteine, L-cysteine]",indole concentrations in the supernatants,WT E. coli cultures,reduced indole concentrations
same,S-sulfhydration of proteins,E. coli lysates; lysates of E. coli grown in supplemented media vs LB alone,higher level of S-sulfhydration
same,E. coli growth,E. coli,without any effects on growth
same,sulfide production by E. coli,E. coli; lead acetate assay,dose-dependent manner
OO [H2O2],S-sulfhydration of proteins,E. coli lysates; treatment of bacterial lysates,reduced the detection of S-sulfhydration proteins
same,TnaA S-sulfhydration,E. coli TnaA; [2],reduced
